The values that follow come from ChEMBL document CHEMBL1201862, “PubChem BioAssay data set” (2004).

Targets include Cytochrome P450 2C9 (Homo sapiens, UniProt P11712); Cytochrome P450 2D6 (Homo sapiens, UniProt P10635); Cytochrome P450 3A4 (Homo sapiens, UniProt P08684).
The target of assay [1] is T1, Replicative DNA helicase DnaB (Mycobacterium tuberculosis, UniProt P9WMR3).
T1 sequence (P9WMR3 whole entry): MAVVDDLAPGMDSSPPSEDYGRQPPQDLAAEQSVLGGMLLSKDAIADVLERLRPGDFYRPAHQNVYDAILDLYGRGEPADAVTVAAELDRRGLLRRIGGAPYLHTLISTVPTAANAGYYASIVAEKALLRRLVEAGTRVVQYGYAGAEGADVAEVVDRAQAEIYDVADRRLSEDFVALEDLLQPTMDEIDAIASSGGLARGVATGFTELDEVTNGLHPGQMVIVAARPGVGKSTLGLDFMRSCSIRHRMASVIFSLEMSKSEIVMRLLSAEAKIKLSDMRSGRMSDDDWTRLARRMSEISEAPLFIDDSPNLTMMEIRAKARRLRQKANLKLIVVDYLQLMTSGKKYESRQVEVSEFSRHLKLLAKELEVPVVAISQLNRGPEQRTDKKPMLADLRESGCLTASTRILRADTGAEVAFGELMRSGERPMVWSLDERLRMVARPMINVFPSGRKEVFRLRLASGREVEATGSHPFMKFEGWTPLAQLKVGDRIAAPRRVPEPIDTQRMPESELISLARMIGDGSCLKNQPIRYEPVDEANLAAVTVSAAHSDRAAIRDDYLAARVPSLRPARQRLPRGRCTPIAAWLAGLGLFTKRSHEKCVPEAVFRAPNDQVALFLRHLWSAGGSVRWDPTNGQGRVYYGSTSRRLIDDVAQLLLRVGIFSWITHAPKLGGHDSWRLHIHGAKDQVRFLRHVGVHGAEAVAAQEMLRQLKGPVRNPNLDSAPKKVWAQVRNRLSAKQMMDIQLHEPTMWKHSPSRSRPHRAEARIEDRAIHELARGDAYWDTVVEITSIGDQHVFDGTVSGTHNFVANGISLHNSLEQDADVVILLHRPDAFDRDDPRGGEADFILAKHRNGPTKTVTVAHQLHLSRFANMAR
Kind of assay: DnaB intein splicing inhibitors, dose response, biochemical, cell-free fluorescence (AID 449749). The assay is classed as functional.

The target in another assay is T2, Protein RecA (Mycobacterium tuberculosis, UniProt P9WHJ3).
T2 sequence (P9WHJ3 whole entry): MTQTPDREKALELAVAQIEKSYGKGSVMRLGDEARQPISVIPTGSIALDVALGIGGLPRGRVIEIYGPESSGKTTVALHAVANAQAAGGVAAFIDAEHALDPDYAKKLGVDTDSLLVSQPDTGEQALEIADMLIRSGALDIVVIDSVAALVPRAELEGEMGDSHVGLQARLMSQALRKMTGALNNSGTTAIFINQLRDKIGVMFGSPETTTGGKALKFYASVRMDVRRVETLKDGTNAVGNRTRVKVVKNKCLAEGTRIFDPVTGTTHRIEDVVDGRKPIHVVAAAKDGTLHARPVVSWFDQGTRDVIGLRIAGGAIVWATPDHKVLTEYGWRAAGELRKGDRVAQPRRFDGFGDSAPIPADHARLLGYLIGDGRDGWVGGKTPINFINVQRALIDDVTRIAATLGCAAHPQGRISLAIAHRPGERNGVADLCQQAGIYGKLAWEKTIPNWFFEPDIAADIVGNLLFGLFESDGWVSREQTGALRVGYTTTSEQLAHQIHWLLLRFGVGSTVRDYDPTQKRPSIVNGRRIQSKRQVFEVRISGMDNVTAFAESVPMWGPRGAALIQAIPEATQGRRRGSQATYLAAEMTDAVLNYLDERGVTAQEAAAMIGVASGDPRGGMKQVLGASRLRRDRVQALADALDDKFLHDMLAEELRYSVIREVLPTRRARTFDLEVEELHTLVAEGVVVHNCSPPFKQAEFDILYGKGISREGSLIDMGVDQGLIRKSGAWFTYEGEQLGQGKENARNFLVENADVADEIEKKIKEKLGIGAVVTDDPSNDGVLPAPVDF
Kind of assay: Fluorescence Cell-Free Homogeneous Dose Retest to Identify Inhibitors of RecA-Intein Splicing Activity. [Related pubchem assays (depositor defined):AID2097, AID2223, AID489010, AID492950]. Type of assay: functional.

Assay [2] addresses T3, Polyadenylate-binding protein 1 (Homo sapiens, UniProt P11940). In words: PABP1 MLLE–PAM2 interaction inhibitors, dose response, miRNA deadenylation inhibitor project, biochemical, fluorescence polarization, Cy5-PAM2 peptide, secondary (AID 602260). Type of assay: functional. As to conditions: read-out: IC50_Mean.
Assay [3] has as its target T3, Polyadenylate-binding protein 1. Kind of assay: PABP1 MLLE–PAM2 binding inhibitor potency, dose response, biochemical, fluorescence polarization, FITC-PAM2 peptide (AID 602259). Type of assay: functional. The conditions noted are these: read-out: IC50_Mean. (Fluorescence polarisation rises when a labelled molecule tumbles more slowly, as on binding a larger partner.)

Another assay addresses Cytochrome P450 2C19 (Homo sapiens, UniProt P33261). Kind of assay: Cytochrome panel assay with activity outcomes. Panel member name: p450-cyp2c19 Compounds with AC50 equal or less than 10 uM are considered active. As to conditions: read-out: AC50. The assay is classed as functional.
Another assay addresses T4, Cytochrome P450 1A2 (Homo sapiens, UniProt P05177).
T4 sequence (P05177 whole entry): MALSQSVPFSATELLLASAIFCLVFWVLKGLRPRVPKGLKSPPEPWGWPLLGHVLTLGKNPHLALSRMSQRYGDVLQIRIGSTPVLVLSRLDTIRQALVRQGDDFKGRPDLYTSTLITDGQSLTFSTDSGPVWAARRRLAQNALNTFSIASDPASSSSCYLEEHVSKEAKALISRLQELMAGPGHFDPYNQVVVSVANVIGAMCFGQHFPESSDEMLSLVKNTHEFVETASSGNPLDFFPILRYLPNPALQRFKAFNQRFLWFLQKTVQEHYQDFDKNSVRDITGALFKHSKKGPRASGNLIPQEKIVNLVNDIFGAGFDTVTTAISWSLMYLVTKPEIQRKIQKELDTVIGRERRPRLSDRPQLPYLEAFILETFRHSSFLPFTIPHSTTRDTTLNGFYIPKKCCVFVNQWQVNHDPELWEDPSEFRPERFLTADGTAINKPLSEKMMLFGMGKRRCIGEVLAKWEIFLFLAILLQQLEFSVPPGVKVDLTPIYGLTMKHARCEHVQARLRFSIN

The source made the active and inactive calls. Peptide text beside a SMILES is read from it. * marks the point of attachment. Cbz = O=C(OCc1ccccc1)*

Chain of Cytochrome P450 2C19 (P33261 whole entry): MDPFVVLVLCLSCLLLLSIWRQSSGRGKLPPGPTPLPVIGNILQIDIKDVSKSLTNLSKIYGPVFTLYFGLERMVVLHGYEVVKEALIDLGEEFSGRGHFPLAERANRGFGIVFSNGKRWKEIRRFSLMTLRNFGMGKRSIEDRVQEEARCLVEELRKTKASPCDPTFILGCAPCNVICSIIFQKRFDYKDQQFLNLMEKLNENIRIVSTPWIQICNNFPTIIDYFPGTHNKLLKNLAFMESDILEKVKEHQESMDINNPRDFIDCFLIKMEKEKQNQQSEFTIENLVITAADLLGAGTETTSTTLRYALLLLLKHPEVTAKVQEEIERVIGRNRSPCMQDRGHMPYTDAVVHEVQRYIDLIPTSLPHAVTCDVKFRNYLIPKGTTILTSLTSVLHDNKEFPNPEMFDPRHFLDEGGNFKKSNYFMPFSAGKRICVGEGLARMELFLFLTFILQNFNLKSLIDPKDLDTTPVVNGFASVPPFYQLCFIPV
Chain of Cytochrome P450 2D6 (P10635 whole entry): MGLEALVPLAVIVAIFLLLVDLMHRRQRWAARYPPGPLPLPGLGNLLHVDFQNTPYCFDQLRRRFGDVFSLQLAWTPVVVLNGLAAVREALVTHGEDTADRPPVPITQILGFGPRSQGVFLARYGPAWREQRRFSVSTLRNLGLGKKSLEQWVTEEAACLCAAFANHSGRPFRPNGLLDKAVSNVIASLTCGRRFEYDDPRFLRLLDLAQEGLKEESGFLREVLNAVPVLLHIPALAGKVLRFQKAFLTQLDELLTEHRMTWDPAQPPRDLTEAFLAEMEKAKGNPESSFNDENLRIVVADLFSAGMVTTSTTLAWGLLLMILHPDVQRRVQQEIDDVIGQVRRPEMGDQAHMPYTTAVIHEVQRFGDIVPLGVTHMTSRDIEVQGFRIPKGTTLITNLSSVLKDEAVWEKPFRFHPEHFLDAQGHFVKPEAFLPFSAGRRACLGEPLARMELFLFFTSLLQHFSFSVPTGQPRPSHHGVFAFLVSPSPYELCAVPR
Chain of Cytochrome P450 3A4 (P08684 whole entry): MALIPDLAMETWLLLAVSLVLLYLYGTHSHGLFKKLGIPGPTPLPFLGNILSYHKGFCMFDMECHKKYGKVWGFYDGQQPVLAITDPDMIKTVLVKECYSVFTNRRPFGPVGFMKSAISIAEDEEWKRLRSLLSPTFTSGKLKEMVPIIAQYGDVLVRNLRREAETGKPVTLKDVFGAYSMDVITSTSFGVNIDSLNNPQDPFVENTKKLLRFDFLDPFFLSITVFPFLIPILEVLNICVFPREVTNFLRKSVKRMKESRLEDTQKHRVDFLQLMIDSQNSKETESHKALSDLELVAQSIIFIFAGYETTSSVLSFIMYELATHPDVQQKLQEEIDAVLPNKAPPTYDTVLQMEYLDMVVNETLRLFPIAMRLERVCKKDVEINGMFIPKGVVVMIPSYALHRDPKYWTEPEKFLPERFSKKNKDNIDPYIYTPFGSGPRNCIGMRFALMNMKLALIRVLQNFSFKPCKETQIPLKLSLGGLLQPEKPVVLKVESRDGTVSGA
T3 sequence (P11940 whole entry): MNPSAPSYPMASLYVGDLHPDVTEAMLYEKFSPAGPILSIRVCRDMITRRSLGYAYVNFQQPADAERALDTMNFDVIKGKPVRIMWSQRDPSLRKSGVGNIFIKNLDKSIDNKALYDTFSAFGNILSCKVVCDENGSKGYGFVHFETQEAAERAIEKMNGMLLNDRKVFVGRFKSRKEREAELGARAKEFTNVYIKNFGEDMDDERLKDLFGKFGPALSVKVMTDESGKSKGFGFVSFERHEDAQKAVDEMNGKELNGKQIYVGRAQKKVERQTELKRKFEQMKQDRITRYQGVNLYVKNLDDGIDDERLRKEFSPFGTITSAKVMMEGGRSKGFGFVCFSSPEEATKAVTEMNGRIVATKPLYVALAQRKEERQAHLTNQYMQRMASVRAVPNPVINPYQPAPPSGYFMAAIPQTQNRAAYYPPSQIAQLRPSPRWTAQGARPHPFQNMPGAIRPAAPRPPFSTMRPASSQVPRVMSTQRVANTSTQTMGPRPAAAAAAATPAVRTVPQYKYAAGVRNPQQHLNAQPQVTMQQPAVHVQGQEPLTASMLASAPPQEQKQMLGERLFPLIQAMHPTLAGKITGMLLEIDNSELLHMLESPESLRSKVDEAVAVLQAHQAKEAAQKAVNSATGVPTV
Chain of Cytochrome P450 2C9 (P11712 whole entry): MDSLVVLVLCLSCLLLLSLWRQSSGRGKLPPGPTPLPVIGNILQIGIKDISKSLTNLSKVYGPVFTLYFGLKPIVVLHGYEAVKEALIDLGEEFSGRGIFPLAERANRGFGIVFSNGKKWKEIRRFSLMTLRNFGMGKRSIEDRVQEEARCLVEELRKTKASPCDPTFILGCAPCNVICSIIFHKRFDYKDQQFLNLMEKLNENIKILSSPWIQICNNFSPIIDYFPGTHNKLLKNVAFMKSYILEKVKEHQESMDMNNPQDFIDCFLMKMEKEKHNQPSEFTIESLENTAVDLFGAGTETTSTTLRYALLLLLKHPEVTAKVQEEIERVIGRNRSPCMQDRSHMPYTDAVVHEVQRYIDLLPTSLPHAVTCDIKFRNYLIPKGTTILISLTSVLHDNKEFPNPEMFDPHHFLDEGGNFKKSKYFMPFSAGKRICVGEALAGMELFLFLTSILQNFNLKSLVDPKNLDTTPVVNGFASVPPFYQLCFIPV

As for `Cc1n[nH]c(C)c1S(=O)(=O)N1CCOCC1`, the AC50 at Cytochrome P450 2C9 was 17.8 µM (inconclusive).

Turning to `COc1cc(Cc2nccc3cc(OC)c(OC)cc23)c(S(=O)(=O)O)cc1OC`, in assay [1], the AC50 is 161 µM (active). In addition, the EC50 on Protein RecA is 85.7 µM (active).

For the compound `Cc1ccc(NC(=O)C(CC(C)C)NC(N)=O)cc1` (stereo not given), the AC50 in [1] is > 380 µM (inactive). Also, the EC50 at Protein RecA is > 380 µM (inactive).

As for `CCCCn1[nH]c(-c2ccccc2)cc1=O`, in [1], the concentration at half-maximal activity (AC50) is 2.96 µM (active). The EC50 on Protein RecA was 1.05 µM (active).

As for `COc1ccccc1C1CC(c2cccs2)=Nc2ccccc2S1` (stereo not given), the IC50 in assay [2] and in assay [3] was > 66 µM (inactive) each time.

With `O=C(CN1C(=O)/C(=C/c2ccccc2Cl)SC1=S)NC1CCS(=O)(=O)C1` (stereo not given), the IC50 in assay [2] and in [3] was > 66 µM (inactive) each time.

In the case of `O=C(N/C(=C\c1cccs1)C(=O)N1CCCCCC1)c1ccccc1`, the AC50 is 5.01 µM (inconclusive) on Cytochrome P450 2C19 and 31.6 µM (inconclusive) at Cytochrome P450 2C9.

With `O=C(COc1ccc(Br)cc1)NNC(=O)c1ccc(-n2cncn2)c([N+](=O)[O-])c1`, the IC50 in [2] and in [3] was > 66 µM (inactive) each time.

On to `COc1cccc(-c2cncnc2NCc2ccccc2)c1`, for which the half-maximal activity concentration (AC50) on Cytochrome P450 2D6 was 39.8 µM (inconclusive); at Cytochrome P450 2C9, 0.158 µM (inconclusive).

In the case of `O=C(CCc1nc(-c2ccccc2)c(-c2ccccc2)o1)OCc1ccc(Cl)cc1`, the AC50 at Cytochrome P450 3A4 was 35.5 µM (inconclusive).

Regarding `CCOc1ccc(CCNC(=O)C2CC(=O)N(C3CCCC3)C2)cc1OCC` (stereo not given), the half-maximal activity concentration (AC50) at Cytochrome P450 2C19 is 0.0631 µM (inconclusive); on Cytochrome P450 2D6, 0.0282 µM (inconclusive).

On to `COc1ccccc1CNc1nc(-c2c(C)noc2C)nc2ccccc12`, for which the AC50 is 1.58 µM (inconclusive) at Cytochrome P450 2C19, 7.94 µM (inconclusive) on Cytochrome P450 2D6 and 1 µM (inconclusive) on Cytochrome P450 2C9.

On to `COc1ccc(-c2nc3cnc(Oc4ccccc4)nc3n(C3CC3)c2=O)cc1`, for which the AC50 at Cytochrome P450 3A4 is 15.8 µM (inconclusive).

For the compound `CCOC(=O)C(CC)Sc1ncnc2c1nnn2-c1ccc(F)cc1` (stereo not given), in assay [1], the AC50 was 0.908 µM (active). At Protein RecA, the concentration for a half-maximal effect (EC50) was 26.7 µM (active).

Consider `O=C(O)c1nn(-c2ccccc2)ccc1=O`, for which the AC50 at Cytochrome P450 2C9 is 0.398 µM (inconclusive).

For `COC(=O)CCC(NC(=O)OCc1ccccc1)C(=O)NC(CC(C)C)C(=O)OC` (stereo not given) (Cbz-Glu(OMe)-Leu-OMe; configuration not given here), the AC50 at Cytochrome P450 3A4 is 14.1 µM (inconclusive).

Consider `C=O.C[C@@H]1Cc2ccccc2N1NC(=O)c1ccc(Cl)c([S+](N)[O-])c1` (stereo not given in full), for which the AC50 at Cytochrome P450 3A4 was 5.01 µM (inconclusive).

`CC1Nc2ncnc(N3CCc4ccccc4C3)c2N(Cc2ccc(Br)cc2)C1=O` (stereo not given): the AC50 in assay [1] was > 380 µM (inactive). Also, the EC50 at Protein RecA was 23.7 µM (active).

In the case of `CC(=O)Nc1ccc(SCC(=O)NC(=O)c2ccc(S(=O)(=O)N(C)C)cc2)cc1`, the IC50 in [2] and in [3] was > 66 µM (inactive) throughout.

Take `N[C@@H](Cc1cc(-c2ccc(Cl)cc2Cl)cc(CP(=O)(O)O)c1O)C(=O)O`: the AC50 is 7.94 µM (inconclusive) at Cytochrome P450 2C19, 20 µM (inconclusive) at Cytochrome P450 1A2 and 20 µM (inconclusive) at Cytochrome P450 2C9.

For `CCC1NC(=S)N(C2CCCCC2)C1=O` (stereo not given), the results for the AC50 on Cytochrome P450 2C19 and on Cytochrome P450 2C9 were 5.01 µM (inconclusive) and 15.8 µM (inconclusive), respectively.

As to `Cn1cc(-c2nc3cnc(N4CCOCC4)nc3n(CCC#N)c2=O)c2ccccc21`, the AC50 on Cytochrome P450 3A4 was 15.8 µM (inconclusive).

For the compound `CC[C@]1(c2ncc[nH]2)Cc2ccccc2O1`, the results for the AC50 at Cytochrome P450 2D6 and on Cytochrome P450 2C9 were 10 µM (inconclusive) and 25.1 µM (inconclusive), respectively.

In the case of `O=c1cnc2cnc(Oc3cccc(Cl)c3)nc2n1Cc1ccc(F)cc1`, the AC50 on Cytochrome P450 3A4 was 25.1 µM (inconclusive).

On to `Cc1ccccc1-c1nc(C[S+]([O-])CC(=O)NCCN2CCN(Cc3ccccc3)CC2)c(C)o1` (stereo not given), for which the AC50 at Cytochrome P450 2C9 is 39.8 µM (inconclusive).

Take `Cc1cc(C)n2nc(SCc3cc(=O)oc4ccc5ccccc5c34)nc2n1`: the IC50 in assay [2] and in assay [3] was > 66 µM (inactive) each time.

For `O=C(NC(=S)Nc1cccc2cccnc12)c1ccccc1`, the IC50 in assay [2] and in assay [3] was > 66 µM (inactive) in each case.

For the compound `C/C(=N/NC(=O)Cc1cc(O)[nH]n1)c1ccc([N+](=O)[O-])cc1`, the AC50 in assay [1] was 2.51 µM (active). The EC50 on Protein RecA was 1.38 µM (active).

For `Cc1ccc(Cn2nnc3c(O)nc(C4CCN(C(=O)Cc5cccs5)CC4)nc32)cc1`, the AC50 was 31.6 µM (inconclusive) at Cytochrome P450 1A2 and 17.8 µM (inconclusive) on Cytochrome P450 2D6.

For `Cc1nc2ccccc2c2c1C(=O)NC2=O`, the AC50 in [1] was 76.5 µM (active). Moreover, the concentration giving a half-maximal response (EC50) on Protein RecA was 3.72 µM (active).

Consider `N=C(N)S[C@H]1c2ccccc2-c2cc([N+](=O)[O-])ccc21`, for which the figures for the AC50 on Cytochrome P450 2C19 and at Cytochrome P450 2D6 were 0.631 µM (inconclusive) and 2.51 µM (inconclusive), respectively.

Take `O=C1C(Cl)=C(N2CCOCC2)C(=O)N1c1ccccc1F`: the AC50 in [1] was 10.8 µM (active). Moreover, the half-maximal effective concentration (EC50) at Protein RecA is 2.47 µM (active).

As to `Cc1ccc(S(=O)(=O)CCSc2cccc(C(=O)O)c2)cc1`, the IC50 in [2] and in assay [3] was > 66 µM (inactive) throughout.

For `CCCN(CCC)C(=O)Cc1c(-c2ccc(Cl)cc2)nc2c(Cl)cc(Cl)cn12` [ALPDEM], the half-maximal activity concentration (AC50) at Cytochrome P450 3A4 was 0.794 µM (inconclusive).

Regarding `Cc1ccc(OCC(=O)Nc2ccccc2-c2ccccc2)cc1`, the AC50 at Cytochrome P450 2C9 is 11.2 µM (inconclusive).

Take `O=S(=O)(NC(=S)NC1CCCCC1)c1ccccc1`: the IC50 in assay [2] and in [3] was > 66 µM (inactive) throughout.

Turning to `CCc1noc(C)c1C(=O)N1CCN(S(=O)(=O)c2ccccc2C(F)(F)F)CC1`, the IC50 in assay [2] and in assay [3] was > 66 µM (inactive) each time.

By AC50 is commonly meant the concentration at which the activity in the assay is half-maximal. The EC50 is the concentration that produces a half-maximal response.
